Source: patent US10421755B2, “Salts of aza-bicyclic di-aryl ethers and methods to make them or their precursors” (Novartis AG, priority 2011, dated 2019)

Legend:
Assay type in all cases: physicochemical
[1] = Hygroscopicity (moisture gain at relative humidity); parameters: Hygroscopy @ 85% RH: unit not given here; settings: for moisture gain: at 85% relative humidity (RH); for Hygroscopy @ 85% RH: comparison table, Example 7
[2] = Loss on drying / initial water content; parameters: Initial water content: unit not given here; settings: for Initial water content: comparison table, Example 7
[3] = Known multiple solid forms; settings: comparison table, Example 7
[4] = Decomposition temperature; parameters: unit not given here; settings: comparison table, Example 7
[5] = Stability in buffer solutions and in solid state

| SMILES | hygroscopicity (in words) [1] | moisture gain [1] | Hygroscopy @ 85% RH [1] | Loss on drying (LOD) of a sample [2] | Initial water content [2] | Known Multiple forms [3] | Decomposition temperature [4] | solid-state stability [5] | stability in buffer solutions ([5]; many buffer solutions, various pH values) |
| --- | --- | --- | --- | --- | --- | --- | --- | --- | --- |
| Cc1ccc(-c2ccc(O[C@H]3CN4CCC3CC4)cn2)cc1.O=P(O)(O)O [Form A of the mono-phosphate salt, mono-phosphate salt of (R)-3-(6-(4-methylphenyl)-pyridin-3-yloxy)-1-aza-bicyclo[2.2.2]octane] | slightly hygroscopic | 0.2% | 0.2 | about 0.5% | ~0.5 | Yes | 222 |  |  |
| Cc1ccc(-c2ccc(O[C@H]3CN4CCC3CC4)cn2)cc1.O=C(O)/C=C\C(=O)O [mono-maleate salt, mono-maleate salt of (R)-3-(6-(4-methylphenyl)-pyridin-3-yloxy)-1-aza-bicyclo[2.2.2]octane] | slightly hygroscopic | 0.3% | 0.3 | < 0.03% | <0.1 | No | 207 | good | good stability |
| Cc1ccc(-c2ccc(O[C@H]3CN4CCC3CC4)cn2)cc1.O=C(O)CCC(=O)O [Form A of the mono-succinate salt, mono-succinate salt of (R)-3-(6-(4-methylphenyl)-pyridin-3-yloxy)-1-aza-bicyclo[2.2.2]octane] |  | 0.3% | 0.3 | about 4.5% | ~4.5 | Yes | 222 |  |  |
| Cc1ccc(-c2ccc(O[C@H]3CN4CCC3CC4)cn2)cc1.O=C(O)CC(=O)O [mono-malonate salt, mono-malonate salt of (R)-3-(6-(4-methylphenyl)-pyridin-3-yloxy)-1-aza-bicyclo[2.2.2]octane] | slightly hygroscopic | 1.3% | 1.3 | 0% | ~0 | No | 148 |  |  |
| Cc1ccc(-c2ccc(O[C@H]3CN4CCC3CC4)cn2)cc1.Cl [mono-hydrochloride salt, mono-hydrochloride salt of (R)-3-(6-(4-methylphenyl)-pyridin-3-yloxy)-1-aza-bicyclo[2.2.2]octane] | hygroscopic | about 5% | ~5 | about 5% | ~5 | Yes | 262 |  |  |
